Test results from patent US20080108645A1, “Dihydrotetrabenazines And Pharmaceutical Compositions Containing Them” (CAMBRIDGE LABORATORIES, (IRELAND), LTD., priority 2004, published 2008).

Legend:
[1] = target: T1, Serotonin Transporter (SERT) (Homo sapiens, UniProt P31645); assay: Serotonin transporter (SERT) radioligand binding; details: for IC50 / Percentage Inhibition of Specific Binding, SERT: 0.15 nM [125I] RTI-55; for IC50: read-out: IC50 value (in parentheses), SERT; for Percentage Inhibition of Specific Binding, SERT: 10 μM
T1 construct: expressed in transfected cells; host or cells: HEK-293 cells
Method: (§1) (a) Adrenergic α2A Receptor: • Reference: S. Uhlen et al. J. Pharmacol. Exp. Ther., 271:1558-1565 (1994) • Source: Human recombinant insect Sf9 cells • Ligand: 1 nM [^3H] […] J. Pharmacol., 99:803-809, (1990) • Source: Wistar rat cerebral cortex • Ligand: 2 nM [3H]

Human HEK-293 cells = assay: Cellular assay: inhibition of [3H] serotonin uptake by human embryonic kidney cells; type: cell-based; details: for inhibition at 10 µM: Homo sapiens, HEK293
Method: The ability of isomers B and C to inhibit uptake of serotonin (5-hydroxytryptamine) by human embryonic kidney cells was measured using the following assay conditions: […]

[2] = tested on: Imidazoline I2 (Central) Receptor; assay: Imidazoline I2 (central) receptor radioligand binding; set-up: species or system Wistar rat; details: 10 μM; 2 nM [3H] Idazoxan
Method: as §1

Dopamine D3 Receptor = target: T2, Dopamine D3 Receptor (Homo sapiens, UniProt P35462); assay: Dopamine D3 receptor radioligand binding; details: 10 μM; 0.7 nM [3H] Spiperone
T2 construct: expressed in transfected cells; host or cells: CHO cells
Method: as §1

[3] = tested on: Catechol O-Methyl Transferase (COMT); assay: Catechol O-Methyl Transferase (COMT) inhibition; type: biochemical, Porcine; details: for Percentage Inhibition of Enzyme Activity, COMT: 10 μM
Method: Isomers B and C were tested for their ability to inhibit enzymes involved in the processing of monoamines in the CNS, namely Catechol O-Methyl Transferase (COMT), Monoamine Oxidase A and Monoamine Oxidase B. The assay methods used are described below and the results are set out in Table 7.
(a) Catechol O-Methyl Transferase (COMT) Inhibition • Source: Porcine liver • Substrate: 3 mM catechol+S-adenosyl-L-[^3H]methionine • Vehicle: 1% DMSO • Pre-incubation time/Temp: None • Incubation time: 60 minutes @ 37° C. • Incubation buffer: 100 mM potassium phosphate, 10 mM MgCl2, 3 mM DTT containing 12 units/ml adenosine deaminase, pH 7.4 • Quantitation method: Quantitation of [^3H] guiacol. • Significance criteria: ≧50% of maximum stimulation or inhibition (b) Monoamine Oxidase MAO-A Inhibition • Source: Human recombinant • Substrate: 50 μM kynuramine • Vehicle: 1% DMSO • Pre-incubation time/Temp: 15 minutes @ 37° C. • Incubation time: 60 minutes @ 37° C. • Incubation buffer: 100 mM KH2PO4, pH 7.4 • Quantitation method: Spectrofluorimetric quantitation of 4-hydroxyquinoline • Significance criteria: ≧50% of maximum stimulation or inhibition (c) Monoamine Oxidase MAO-B Inhibition • Source: Human recombinant • Substrate: 50 μM kynuramine • Vehicle: 1% DMSO • Pre-incubation time/Temp: 15 minutes @ 37° C. • Incubation time: 60 minutes @ 37° C. • Incubation buffer: 100 mM KH2PO4, pH 7.4 • Quantitation method: Spectrofluorimetric quantitation of 4-hydroxyquinoline • Significance criteria: ≧50% of maximum stimulation or inhibition

Sigma σ2 Receptor = target: T3, Sigma σ2 Receptor (Rattus norvegicus, UniProt Q5U3Y7); assay: Sigma σ2 receptor radioligand binding; set-up: species or system Wistar rat; details: 3 nM [3H] Ifenprodil
T3 construct: Source: Wistar rat brain; from tissue; host or cells: Wistar rat brain
T3 sequence (Q5U3Y7 1-176): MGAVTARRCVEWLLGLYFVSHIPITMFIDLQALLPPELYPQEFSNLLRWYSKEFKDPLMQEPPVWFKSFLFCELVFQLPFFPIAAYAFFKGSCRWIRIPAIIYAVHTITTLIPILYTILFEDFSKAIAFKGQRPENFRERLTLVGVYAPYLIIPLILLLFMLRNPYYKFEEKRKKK
Method: as §1

Dopamine D1 Receptor = target: T4, Dopamine D1 Receptor (Homo sapiens, UniProt P21728); assay: Dopamine D1 receptor radioligand binding; details: 10 μM; 1.4 nM [3H] SCH-23390
T4 construct: expressed in transfected cells; host or cells: CHO cells
Method: as §1

Caco-2 monolayer = details: Caco-2
Source text: The assay relies on the ability of Caco-2 cells to differentiate into enterocytes when cultured on a microporous filter for a period of approximately 21 days. During the culture period, the Caco-2 cells undergo spontaneous morphological and biochemical changes, which produce a polarized monolayer with a well-defined brush border on the apical surface, as well as tight cellular junctions. Therefore, these cells may be used as an in vitro model for the analysis of drug permeability.
Absorption across the Caco-2 monolayer can be measured in two directions: apical-to-basolateral or basolateral-to-apical, by adding the compound to the apical or the basolateral chamber, respectively. At various time-points, samples are collected from the receiver-chamber for analysis for the rate of absorption as measured by the apparent permeability coefficient (Papp) across the monolayer.
The Papp value reflects a combination of the test article permeability through both transcellular (through cell membranes) and the paracellular (across the tight junctions between the cells) pathways. The relative contribution of these pathways depends upon the pKa, partition coefficient (log D), molecular radius, and charge of the test article at a given pH. Papp values can then be used to rank-order compounds for their permeability through Caco-2 monolayers.
Absorption was determined at pH 7.4 across cell monolayers in the apical-to-basolateral direction. Caco-2 cells used to estimate Papp values were grown for 26 days on Transwell inserts in 12-well plates. Monolayer integrity was verified before and after the absorption assay by the methods of transepithelial electrical resistance (Ohm-cm^2) and Lucifer Yellow.
On the day of the assay, the reference standards were diluted in Hank's balanced salt solution (HBSS), pH 7.4 to a final concentration of 50 μM. […] Dihydrotetrabenazine isomer samples were prepared at a concentration of 50 mM in DMSO. Each stock solution was further diluted in HBSS buffer (pH 7.4) to a final working concentration of 50 μM
The Caco-2 cell suspensions were prepared as follows. […] Once the cell density and viability were determined, Caco-2 cells were diluted in culture medium to a final working concentration of 2.0×10^5 cells/ml. The Caco-2 culture medium contained Dulbecco's Modified Eagle Medium, 10% fetal bovine serum, 100 μM non-essential amino acids, 100 U/ml penicillin and 100 μg/ml streptomycin.
Costar polycarbonate membranes (0.4 μm pore size) were pre-equilibrated with Caco-2 culture medium for 1 hour in a 37° C. water-jacketed incubator with 5% CO2. The content of the apical chamber was removed and replaced with 500 μl of Caco-2 cell suspension (200 000 cells/ml). Cells were further maintained in culture for 26 days in a 37° C. water-jacketed incubator with 5% CO2.
Prior to the assay, all monolayers were washed twice with HBSS and their transepithelial electrical resistance (TEER) was measured with a Millicell-ERS meter. TEER values obtained in the absence of cells were subtracted as background signal. Only monolayer with TEER values over 150 Ohm-cm^2 were used for the absorption assay experiment.
All absorption experiments were conducted in triplicate at pH 7.4. The rate of absorption of each reference standard and dihydrotetrabenazine test article was assessed in the apical-to-basolateral direction. Aliquots (100 μl) of each working solution (reference standards and test articles at 50 μM) were set aside at the beginning of the assay for the determination of the initial concentration (Co).
Absorption experiments were initiated by replacing the content of the donor chamber with 500 μl of Hanks Balanced Salt Solution containing test articles or reference compounds. Cells were returned to the CO2 incubator for the absorption assay. Samples of 100 μl were collected from the receiver and donor chambers after 1 hour and were used to determine the percentage of recovery.

T1 sequence (P31645 whole entry): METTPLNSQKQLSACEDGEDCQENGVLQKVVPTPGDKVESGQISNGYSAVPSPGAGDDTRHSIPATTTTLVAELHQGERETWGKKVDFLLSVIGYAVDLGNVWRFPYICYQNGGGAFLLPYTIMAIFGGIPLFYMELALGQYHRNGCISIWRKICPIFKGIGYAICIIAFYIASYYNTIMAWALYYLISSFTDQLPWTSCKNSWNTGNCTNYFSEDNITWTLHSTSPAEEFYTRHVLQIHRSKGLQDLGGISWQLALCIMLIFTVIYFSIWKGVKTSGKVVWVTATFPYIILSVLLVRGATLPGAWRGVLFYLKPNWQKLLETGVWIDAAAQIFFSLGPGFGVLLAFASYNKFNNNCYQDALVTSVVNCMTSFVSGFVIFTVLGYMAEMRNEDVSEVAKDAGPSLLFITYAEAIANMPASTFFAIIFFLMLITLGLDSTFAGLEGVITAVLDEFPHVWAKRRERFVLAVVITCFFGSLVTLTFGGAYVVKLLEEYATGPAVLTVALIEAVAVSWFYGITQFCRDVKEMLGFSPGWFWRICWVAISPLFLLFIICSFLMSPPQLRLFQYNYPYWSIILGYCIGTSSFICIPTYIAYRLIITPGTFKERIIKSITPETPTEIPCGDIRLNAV
T4 sequence (P21728 whole entry): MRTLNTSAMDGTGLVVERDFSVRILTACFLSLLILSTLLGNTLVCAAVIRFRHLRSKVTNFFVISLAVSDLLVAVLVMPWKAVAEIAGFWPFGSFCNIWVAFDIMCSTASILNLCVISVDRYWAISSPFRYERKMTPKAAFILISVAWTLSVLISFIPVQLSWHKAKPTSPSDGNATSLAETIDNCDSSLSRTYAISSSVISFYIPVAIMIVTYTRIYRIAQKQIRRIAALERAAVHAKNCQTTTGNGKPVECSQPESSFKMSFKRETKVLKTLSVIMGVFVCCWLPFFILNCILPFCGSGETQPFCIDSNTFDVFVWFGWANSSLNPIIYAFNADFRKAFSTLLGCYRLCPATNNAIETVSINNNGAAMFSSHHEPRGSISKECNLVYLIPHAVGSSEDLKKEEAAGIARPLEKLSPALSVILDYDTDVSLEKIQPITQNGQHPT
T2 sequence (P35462 whole entry): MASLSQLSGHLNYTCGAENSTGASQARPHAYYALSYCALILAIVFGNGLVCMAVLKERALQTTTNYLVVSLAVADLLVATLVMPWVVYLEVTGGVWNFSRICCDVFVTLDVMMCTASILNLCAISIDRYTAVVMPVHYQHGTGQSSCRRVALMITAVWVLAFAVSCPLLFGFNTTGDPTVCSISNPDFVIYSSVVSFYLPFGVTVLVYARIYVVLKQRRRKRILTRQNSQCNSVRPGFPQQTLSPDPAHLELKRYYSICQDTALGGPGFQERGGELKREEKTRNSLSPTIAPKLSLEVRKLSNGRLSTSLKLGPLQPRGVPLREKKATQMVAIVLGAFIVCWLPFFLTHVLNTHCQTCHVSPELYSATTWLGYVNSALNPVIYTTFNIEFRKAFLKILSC

Row | Compound | inhibition of SERT (in words) [1] | IC50 [1] | Percentage Inhibition of Specific Binding, SERT [1] | mode of action on serotonin uptake (in words) (Human HEK-293 cells) | inhibition at 10 µM (Human HEK-293 cells) | Percentage Inhibition of Specific Binding, I2 Receptor [2] | Percentage Inhibition of Specific Binding, D3 Receptor (Dopamine D3 Receptor) | inhibitory activity against COMT (in words) [3] | Percentage Inhibition of Enzyme Activity, COMT [3] | Percentage Inhibition of Specific Binding, σ2 Receptor (Sigma σ2 Receptor; 10 μM) | Percentage Inhibition of Specific Binding, D1 Receptor (Dopamine D1 Receptor) | permeability in the Caco-2 model (in words) (Caco-2 monolayer) | inhibition at 10 µM (Sigma σ2 Receptor; read-out: Percentage Inhibition of Specific Binding, σ2 Receptor)
1 | COc1cc2c(cc1OC)[C@H]1C[C@H](O)[C@@H](CC(C)C)CN1CC2 (single isomer, unassigned) [Isomer B, 3,11b-cis-dihydrotetrabenazine] | potent inhibitors | 350 nM | 86% | antagonist | 56% | 8% | 7% | no inhibitory activity | −12% | 64% | 1% | medium permeability | –
2 | COc1cc2c(cc1OC)[C@H]1C[C@@H](O)[C@@H](CC(C)C)CN1CC2 (single isomer, unassigned) [Isomer C, 3,11b-cis-dihydrotetrabenazine] | potent inhibitors | 2750 nM | 77% | antagonist | 86% | 0% | 9% | no inhibitory activity | −22% | – | 6% | high permeability | 61%
